# Measurements: ChEMBL document CHEMBL1131795, “The spiroketals containing a benzyloxymethyl moiety at C8 position showed the most potent apoptosis-inducing activity” (1999)
# What was measured:
# Assay type in all cases: functional
# [1] = species: Homo sapiens; test: Cell viability of serum-deprived Jurkat cells were determined, 24 hours after incubation with 20 uM concentration of the compound, by MTT-assay
# [2] = species: Homo sapiens; test: Cell viability of serum-deprived Jurkat cells were determined, 24 hours after incubation with 100 uM concentration of the compound, by MTT-assay
# [3] = species: Homo sapiens; test: Concentration required to cause death of human T cell leukemia Jurkat cell was determined; conditions: read-out: LC50 (the source's name)
SMILES,Cell viability [1],Cell viability [2],CC50 [3]
C[C@@H]1CCCO[C@]12O[C@H](CO)[C@@H](C)C[C@H]2S(=O)(=O)c1ccccc1,67.1%,39%,
C[C@@H]1CCCO[C@@]12CC[C@H](C)[C@@H](COC1CCCCO1)O2 (some centres not stated),84.1%,60.1%,
C[C@@H]1CCCO[C@@]12CC[C@H](C)[C@@H](CO)O2,86%,43.8%,
C[C@@H]1CCCO[C@@]12CC[C@H](C)[C@@H](COCOCc1ccccc1)O2,77.9%,0.3%,32 µM
C[C@@H]1CCCO[C@]12O[C@H](CO[Si](c1ccccc1)(c1ccccc1)C(C)(C)C)[C@@H](C)C[C@H]2S(=O)(=O)c1ccccc1,79.5%,68.4%,
C[C@@H]1CCCO[C@@]12CC[C@H](C)[C@@H](CO[Si](c1ccccc1)(c1ccccc1)C(C)(C)C)O2,38.2%,43%,
C[C@@H]1CCCO[C@@]12CCCCO2,98.6%,87.4%,
COCOC[C@H]1O[C@@]2(CC[C@@H]1C)OCCC[C@H]2C,89.1%,81.5%,
C[C@@H]1CCCO[C@@]12CC[C@H](C)[C@@H](COCc1ccccc1)O2,1.7%,0%,14 µM
CC1CC[C@]2(CCCCO2)OC1 (some centres not stated),97.7%,84.6%,
